These are literature values, as cited in patent US20040259949A1, “Method” (priority 2001, published 2004).

The conditions of data set [1]: rat model.
For data set [2] the following is noted: mice.

Take “benzoporphyrin derivative monoacid ring A [BDP-MA]”: the “influence of PDT on skin wound healing” value in data set [1] is reported as “did not influence skin wound healing”.

Turning to `NCC(=O)CCC(=O)O` [5-ALA, 5-amino-4-oxo-pentanoic acid], the “effect of PDT on viability of normal human fibroblasts” value in the data set with normal human fibroblasts was “no effect on viability of normal human fibroblasts”. In addition, the “effect of PDT on healing of colonic anastomosis” value in data set [2] is reported as “no significant impairment in healing of colonic anastomosis”.
